Test results taken from PubChem BioAssay AID2060513 (Molecular Pharmacology Branch, DTP, NCI, 2025).
Values belong to the compound of their own block, whether it stands above or below them.

Tested on: 299254-011-R-J1-PDC complex spheroids viability
Test: Anticancer human tumor 299254-011-R-J1-PDC patient-derived melanoma cell line growth inhibition [GQUAD]
Conditions: for IC50: curve of first compound; for viability, T/C: stronger effect = lower value
Method in brief: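 Tumor cells were grown as complex spheroids with HUVEC endothelial cells and mesenchymal stem cells as stroma. G-quadruplex stabilizers were combined with targeted agents over half-log dilutions from near the clinical Cmax, or from 10 microM.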

[1] = second compound 0.0316 µM, first compound 0.0316 µM
[2] = second compound 0.0316 µM, first compound 0.1 µM
[3] = second compound 0.0316 µM, first compound 0.316 µM
[4] = second compound 0.0316 µM, first compound 1 µM
[5] = second compound 0.0316 µM, first compound 3.16 µM
[6] = second compound 0.0316 µM, first compound 10 µM
[7] = second compound 0.1 µM, first compound 0.0316 µM
[8] = second compound 0.1 µM, first compound 0.1 µM
[9] = second compound 0.1 µM, first compound 0.316 µM
[10] = second compound 0.1 µM, first compound 1 µM
[11] = second compound 0.1 µM, first compound 3.16 µM
[12] = second compound 0.1 µM, first compound 10 µM
[13] = second compound 0.316 µM, first compound 0.0316 µM
[14] = second compound 0.316 µM, first compound 0.1 µM
[15] = second compound 0.316 µM, first compound 0.316 µM
[16] = second compound 0.316 µM, first compound 1 µM
[17] = second compound 0.316 µM, first compound 3.16 µM
[18] = second compound 0.316 µM, first compound 10 µM
[19] = second compound 1 µM, first compound 0.0316 µM
[20] = second compound 1 µM, first compound 0.1 µM
[21] = second compound 1 µM, first compound 0.316 µM
[22] = second compound 1 µM, first compound 1 µM
[23] = second compound 1 µM, first compound 3.16 µM
[24] = second compound 1 µM, first compound 10 µM
[25] = second compound 3.16 µM, first compound 0.0316 µM
[26] = second compound 3.16 µM, first compound 0.1 µM
[27] = second compound 3.16 µM, first compound 0.316 µM
[28] = second compound 3.16 µM, first compound 1 µM
[29] = second compound 3.16 µM, first compound 3.16 µM
[30] = second compound 3.16 µM, first compound 10 µM
[31] = second compound 10 µM, first compound 0.0316 µM
[32] = second compound 10 µM, first compound 0.1 µM
[33] = second compound 10 µM, first compound 0.316 µM
[34] = second compound 10 µM, first compound 1 µM
[35] = second compound 10 µM, first compound 3.16 µM
[36] = second compound 10 µM, first compound 10 µM
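Also: spheroids exposed to the agents for seven days before readout.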
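For viability, T/C in this document: percent viability relative to DMSO vehicle control wells = 100%.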

Structure (SMILES): O=C(NO)c1cnc(N2CCN(S(=O)(=O)c3ccc4ccccc4c3)CC2)nc1 + CN(C)c1ccc(Nc2c3ccc(NC(=O)CCN4CCCC4)cc3nc3cc(NC(=O)CCN4CCCC4)ccc23)cc1
IC50 (second compound 0.0316 µM): 412 nM | IC50 (second compound 0.1 µM): 447 nM | IC50 (second compound 0.316 µM): 415 nM | IC50 (second compound 1 µM): 519 nM | IC50 (second compound 3.16 µM): 512 nM | IC50 (second compound 10 µM): 448 nM | viability, T/C [1]: 111% | viability, T/C [2]: 90% | viability, T/C [3]: 65.2% | viability, T/C [4]: 3.37% | viability, T/C [5]: 0.26% | viability, T/C [6]: 0.29% | viability, T/C [7]: 103% | viability, T/C [8]: 91.5% | viability, T/C [9]: 69.2% | viability, T/C [10]: 5.67% | viability, T/C [11]: 0.22% | viability, T/C [12]: 0.27% | viability, T/C [13]: 109% | viability, T/C [14]: 92.7% | viability, T/C [15]: 65% | viability, T/C [16]: 3.85% | viability, T/C [17]: 0.2% | viability, T/C [18]: 0.27% | viability, T/C [19]: 112% | viability, T/C [20]: 93.2% | viability, T/C [21]: 85% | viability, T/C [22]: 3.59% | viability, T/C [23]: 0.21% | viability, T/C [24]: 0.25% | viability, T/C [25]: 100% | viability, T/C [26]: 90.1% | viability, T/C [27]: 82.3% | viability, T/C [28]: 5.14% | viability, T/C [29]: 0.2% | viability, T/C [30]: 0.24% | viability, T/C [31]: 115% | viability, T/C [32]: 85.8% | viability, T/C [33]: 71% | viability, T/C [34]: 3.61% | viability, T/C [35]: 0.22% | viability, T/C [36]: 0.26%

Structure (SMILES): Nc1ccn(C2OC(CO)C(O)C2(F)F)c(=O)n1 (stereo unspecified) + CN(C)c1ccc(Nc2c3ccc(NC(=O)CCN4CCCC4)cc3nc3cc(NC(=O)CCN4CCCC4)ccc23)cc1
IC50 (second compound 0.0316 µM): > 10000 nM | IC50 (second compound 0.1 µM): > 10000 nM | IC50 (second compound 0.316 µM): 3160 nM | IC50 (second compound 1 µM): > 10000 nM | IC50 (second compound 3.16 µM): > 10000 nM | IC50 (second compound 10 µM): > 10000 nM | viability, T/C [1]: 84% | viability, T/C [2]: 73.5% | viability, T/C [3]: 66.9% | viability, T/C [4]: 60.4% | viability, T/C [5]: 54.7% | viability, T/C [6]: 59.3% | viability, T/C [7]: 80.3% | viability, T/C [8]: 94.6% | viability, T/C [9]: 67.1% | viability, T/C [10]: 56.6% | viability, T/C [11]: 58.1% | viability, T/C [12]: 59.7% | viability, T/C [13]: 85.2% | viability, T/C [14]: 117% | viability, T/C [15]: 51.7% | viability, T/C [16]: 59.6% | viability, T/C [17]: 68.3% | viability, T/C [18]: 56.7% | viability, T/C [19]: 93.5% | viability, T/C [20]: 81.2% | viability, T/C [21]: 68.7% | viability, T/C [22]: 57.8% | viability, T/C [23]: 63% | viability, T/C [24]: 72.9% | viability, T/C [25]: 94.1% | viability, T/C [26]: 98.1% | viability, T/C [27]: 71.3% | viability, T/C [28]: 59.7% | viability, T/C [29]: 55.6% | viability, T/C [30]: 59% | viability, T/C [31]: 105% | viability, T/C [32]: 80.1% | viability, T/C [33]: 65.6% | viability, T/C [34]: 64.3% | viability, T/C [35]: 66.6% | viability, T/C [36]: 61.6%

IC50 (second compound 0.0316 µM): > 316 nM | IC50 (second compound 0.1 µM): > 316 nM | IC50 (second compound 0.316 µM): > 316 nM | IC50 (second compound 1 µM): > 316 nM | IC50 (second compound 3.16 µM): > 316 nM | IC50 (second compound 10 µM): < 0.999 nM
Structure (SMILES): CC[C@@]1(O)C(=O)OCc2c1cc1n(c2=O)Cc2cc3c(CN(C)C)c(O)ccc3nc2-1 + Cc1cnc(CNC(=O)c2c(=O)c3ccc(N4CCCN(C)CC4)nc3n3c2sc2ccccc23)cn1
viability, T/C (second compound 0.0316 µM, first compound 0.000999 µM): 127% | viability, T/C (second compound 0.0316 µM, first compound 0.00316 µM): 86.3% | viability, T/C (second compound 0.0316 µM, first compound 0.00999 µM): 96.4% | viability, T/C [1]: 86.7% | viability, T/C (second compound 0.0316 µM, first compound 0.0999 µM): 98.5% | viability, T/C [3]: 81.3% | viability, T/C (second compound 0.1 µM, first compound 0.000999 µM): 87.5% | viability, T/C (second compound 0.1 µM, first compound 0.00316 µM): 116% | viability, T/C (second compound 0.1 µM, first compound 0.00999 µM): 81.8% | viability, T/C [7]: 101% | viability, T/C (second compound 0.1 µM, first compound 0.0999 µM): 88.2% | viability, T/C [9]: 73.8% | viability, T/C (second compound 0.316 µM, first compound 0.000999 µM): 106% | viability, T/C (second compound 0.316 µM, first compound 0.00316 µM): 92.8% | viability, T/C (second compound 0.316 µM, first compound 0.00999 µM): 103% | viability, T/C [13]: 84.9% | viability, T/C (second compound 0.316 µM, first compound 0.0999 µM): 92.4% | viability, T/C [15]: 82.2% | viability, T/C (second compound 1 µM, first compound 0.000999 µM): 76.2% | viability, T/C (second compound 1 µM, first compound 0.00316 µM): 79.8% | viability, T/C (second compound 1 µM, first compound 0.00999 µM): 89.5% | viability, T/C [19]: 79.6% | viability, T/C (second compound 1 µM, first compound 0.0999 µM): 74.3% | viability, T/C [21]: 76.6% | viability, T/C (second compound 3.16 µM, first compound 0.000999 µM): 80.8% | viability, T/C (second compound 3.16 µM, first compound 0.00316 µM): 70.7% | viability, T/C (second compound 3.16 µM, first compound 0.00999 µM): 89.9% | viability, T/C [25]: 94.5% | viability, T/C (second compound 3.16 µM, first compound 0.0999 µM): 77.7% | viability, T/C [27]: 53.6% | viability, T/C (second compound 10 µM, first compound 0.000999 µM): 0.41% | viability, T/C (second compound 10 µM, first compound 0.00316 µM): 16.5% | viability, T/C (second compound 10 µM, first compound 0.00999 µM): 49.5% | viability, T/C [31]: 36.7% | viability, T/C (second compound 10 µM, first compound 0.0999 µM): 0.46% | viability, T/C [33]: 0.37%
